Laboratory results: PubChem BioAssay (NCI)
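Where inhibition never reached the appropriate level, the endpoint shown equals the highest concentration tested. Otherwise, values were interpolated linearly from a five-concentration, 48-hour dose response in 96-well plates. TGI: concentration producing complete growth inhibition.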

Key:
Assay in all cases: NCI anticancer screen, dose series, 48 h
[1] = system: UO-31 renal
[2] = system: MDA-N
[3] = system: T-47D breast
[4] = system: SF-295 CNS
[5] = system: LOX IMVI melanoma
[6] = system: SK-OV-3 ovarian
[7] = system: CCRF-CEM leukemia
[8] = system: SK-MEL-28 melanoma
[9] = system: RPMI-8226 leukemia
[10] = system: M14 melanoma
[11] = system: HT29 colon
[12] = system: MALME-3M melanoma

Row | Structure (SMILES) | TGI [1] [µM] | TGI [2] [µM] | TGI [3] [µM] | TGI [4] [µM] | TGI [5] [µM] | TGI [6] [µM] | TGI [7] [µM] | TGI [8] [µM] | TGI [9] [µM] | TGI [10] [µM] | TGI [11] [µM] | TGI [12] [µM]
1 | O=C(O)CSCc1cc2c(O)c(c1)Cc1cc(CSCC(=O)O)cc(c1O)Cc1cc(CSCC(=O)O)cc(c1O)Cc1cc(CSCC(=O)O)cc(c1O)C2 | > 100 | > 100 | > 100 | > 100 | > 100 | > 100 | > 100 | > 100 | > 100 | > 100 | > 100 | > 100
2 | Oc1ccc2c(c1)CCc1c-2n(CCN2CCOCC2)c2ccc(O)cc12 | 34.9 | > 100 | > 100 | > 100 | > 100 | > 100 | > 100 | > 100 | > 100 | > 100 |  | 75.6
3 | CCN(CC)CCC(=O)c1ccc(Sc2ccc(F)cc2)cc1 | 31.9 | 49 | 42.9 | 35.1 | 37.2 | 45 | 34 | 34.3 | 9.74 | 54.6 | 85.2 | 33.4
4 | COc1cc(C(=O)/C=C/c2ccc(OCCSCCCCCCCCCCSCCOc3ccc(/C=C/C(=O)c4cc(OC)c(OC)c(OC)c4)cc3)cc2)cc(OC)c1OC | > 100 | > 100 | > 100 | > 100 | > 100 |  | > 100 | > 100 | > 100 | > 100 | > 100 | > 100
5 | S=C(NNC1=NCCCCN1)Nc1ccc(Cl)cc1 | 31.6 | > 100 | > 100 | 57.5 | > 100 | 93.1 | > 100 | > 100 | > 100 | 22.1 | > 100 | 55.7
6 | O=C(c1cc2ccccc2[nH]1)N1C2CCC1CN(CCOC(c1ccc(F)cc1)c1ccc(F)cc1)CC2 (stereo unspecified) |  | > 100 | > 100 | > 100 | > 100 | > 100 | > 100 | > 100 | > 100 | > 100 | > 100 | > 100
7 | O=[N+]([O-])c1ccc2nc(Cl)n[n+]([O-])c2c1 | 30.7 | 24.9 | 47.3 | 47.9 | 5.23 | 31.4 | 2.8 | 34 | 9.1 | 27.5 | 49.1 | 29.5
8 | c1ccc2c(CN3CCN(Cc4c[nH]c5ccccc45)CC3)c[nH]c2c1 | 27.7 | 29.1 | 39.1 | 31.1 | 30.6 | 61.8 | > 100 | 36.9 | 53.2 | 29.1 | 36.1 | 29.5
9 | COc1ccc(CC2C3=C(CCN2C(=O)C2CCC2)CC2(CC3)OCCO2)cc1O (stereo unspecified) | 1.49 | 31.6 | > 100 | 45.5 | > 100 | 88.1 | > 100 | > 100 | > 100 | 63.1 | > 100 | > 100
10 | N#C[C@H](C(=O)c1ccccc1F)c1nc2ccccc2s1 | > 100 | > 100 | > 100 | 77.2 | > 100 | > 100 | 73.9 | > 100 | > 100 | > 100 | > 100 | 56.2
11 | CCCCc1ccc(Nc2nc(Cl)c3ncn(COCCOC(C)=O)c3n2)cc1 | 29.7 | 37 | 65.9 | 33.9 | 27.9 | 76.9 | > 100 |  | 55.4 | 36.7 | 32.2 | 31.7
12 | C=CCNC(=S)N=Nc1c(O)n(CN2CCOCC2)c2ccc([N+](=O)[O-])cc12 | > 100 | > 100 | 95.1 | > 100 | > 100 | > 100 | > 100 | > 100 | > 100 | > 100 | > 100 | > 100
13 | CCCC(=O)Nc1cc(/C=C/C(=O)N2CC(CCl)c3c2cc(OCc2ccccc2)c2[nH]cc(C)c32)n(C)c1 (stereo unspecified) | 0.215 | 1.67 | 1.7 | 0.334 | 6.71 | > 25 | 0.244 | 1.54 | 1.3 |  | 0.488 | 0.353
14 | CC(C)C1OC(N)=C(C#N)C1(C#N)C#N (stereo unspecified) | > 100 | > 100 | > 100 | > 100 | > 100 | > 100 | 91.4 |  | 79.2 | > 100 | > 100 | > 100
15 | CCCC(=O)NC(Nc1cc(C)ccn1)(C(=O)OCC)C(F)(F)F (stereo unspecified) | > 100 | > 100 | > 100 | > 100 | > 100 | > 100 | > 100 | > 100 | > 100 | > 100 | > 100 | > 100
16 | O=C1NC(=S)N/C1=C\c1cc2c(=O)c3ccccc3sc2s1 | > 100 | > 100 | > 100 | > 100 | > 100 |  |  | > 100 | > 100 |  | > 100 | > 100
17 | CC1=NN(C(=O)c2ccccc2O)C(=O)/C1=C/c1cccc(O)c1 |  | > 100 | > 100 | > 100 | > 80.5 | > 100 | > 100 | > 100 | > 100 | 37 | > 100 | > 100
18 | COC(=O)c1c(C)cccc1C1CN=NC12Cc1ccccc1C2=O (stereo unspecified) | > 100 | > 100 | > 100 | > 100 | > 100 | > 100 | > 100 | > 100 | > 100 | > 87.9 | > 100 | > 100
19 | CCCCCC1CC=CC(=O)O1 (stereo unspecified) | 24 | 38.2 | 62.4 | 35.6 | 25.1 | 36.9 | 19.7 | 18.5 | 12.4 | 26.6 | 17.8 | 20.2
20 | O=C(NC(=S)Nc1ccc2c(c1)Sc1ccccc1O2)c1ccc([N+](=O)[O-])cc1 | > 100 | > 100 | > 100 | > 100 | > 100 | > 100 | > 100 | > 100 | > 100 | > 100 | > 100 | > 100
21 | CN(C)CCNc1nc2ccccc2c2c1CCCC2 | 27.5 | 33.9 | 40.4 | 31.1 | 34.7 | 42.9 |  | 39.6 | 46.7 | 32.5 | 95.1 | 30.1
22 | COc1ccc(NC(=S)N/N=C\c2ccc(NC(C)=O)cc2)cc1 | > 100 | > 100 | > 100 | > 100 | > 100 | > 100 | > 100 | > 100 | > 100 | > 100 | > 100 | > 100
23 | COC(=O)CCC(C)[C@H]1CCC2C3C(C[C@H](OC(C)=O)[C@@]21C)[C@@]1(C)CCC2(C[C@H]1C[C@H]3OC(C)=O)OOC1(CCCC1)OO2 (stereo partly specified) | 27.8 | > 100 | 75 | > 100 | > 100 | > 100 | > 100 | > 100 | 9.44 | > 100 | > 100 | > 100
24 | O=c1ccn(CC2(CO)CCCC2)c(=O)[nH]1 | > 100 | > 100 | > 100 | > 100 | > 100 | > 100 | > 100 | > 100 | > 100 |  | > 100 | > 100
25 | Cc1c2ccnc(C(=O)NCCN(C)C)c2cc2c3cc(O)ccc3n(C)c12 | 4.11 | 1.93 | 2.83 | 3.37 | 1.26 | 1.65 | 0.24 | 2.14 | 1.14 | 1.47 | 3.87 | 2.06
26 | NC(=O)C(=O)c1ncn(Cc2ccccc2)c1N |  | > 100 | > 100 | > 100 | > 100 | > 100 | > 100 | > 100 | > 100 | > 100 | > 100 | > 100
27 | Cc1ccc(/C=N/n2c(Cc3ccccc3)n[nH]c2=O)cc1 | > 100 | > 100 | > 100 | > 100 | > 100 |  | > 100 | > 100 | > 100 | > 100 | > 100 | > 100
28 | C[Si](C)(C)C#Cc1cc(-c2nc3ccccc3s2)ccc1N | 26.4 | 33.7 | > 100 | 33.7 | 34 | 41.9 | 59.4 |  | 48.3 | 31 | 38.6 | 23.7
